Data taken from patent US20240207297A1 (priority 2021, published 2024).
≈ marks a conversion by molar mass, not a printed value.

Experiments:
SARS-CoV = conditions: cited from earlier work
VERO E6 cell line = conditions: Tables 1, 2 and FIGS. 3A, 3B
[1] = test system: SARS-CoV-2 (COVID-19 disease); assay: Treatment of SARS-CoV-2 positive patients with oral Nystatin tablets
[2] = test system: SARS-CoV-2 early Wuhan strain (CMC-1); assay: microbe, parasite or virus in culture; assay type: cell-based

C[C@@H]1[C@H](O)[C@@H](C)/C=C/C=C/CC/C=C/C=C/C=C/C=C/[C@H](OC2O[C@@H](C)[C@H](O)[C@@H](N)[C@H]2O)C[C@@H]2OC(O)(C[C@@H](O)[C@H](O)CC[C@@H](O)C[C@@H](O)C[C@@H](O)CC(=O)O[C@H]1C)C[C@H](O)[C@H]2C(=O)O (some centres unmarked) [Nystatin, nystatin]
effectiveness against SARS-CoV in vivo (SARS-CoV): not proved to be effective | toxicity of nystatin itself to the cultured cells (VERO E6 cell line): toxic to the cultured cells | course of complaints under treatment ([1]; Patient 1, 3×2 Nystatin tablets (500,000 IU) per day for 10 days): complaints steadily decreased and disappeared after 10 days | course of complaints under treatment ([1]; Patient 2, 3×2 Nystatin tablets (500,000 IU) per day for 15 days): free of complaints | course of complaints under treatment ([1]; Patient 3, 3×2 Nystatin tablets (500,000 IU) per day for 15 days): free of complaints | body temperature ([1]; Patient 4, 9 Apr. 2021 (day 9), one day after start of Nystatin, before 39-39.8° C.): 37.5 °C | body temperature ([1]; Patient 4, 10 Apr. 2021 (day 10)): 36.9 °C | body temperature ([1]; Patient 4, 11 Apr. 2021 (day 11)): 36.3 °C | state after treatment ([1]; Patient 4, Nystatin from 8 Apr. 2021, 3×2 tablets daily, state on 14 Apr. 2021): “post-covid” asymptomatic state | microscopic image of tissue culture at the end of the incubation period ([2]; CMC-1 virus treated with 60 μg/ml nystatin, FIG. 4C): both cells with lysed and intact morphology can be seen | IC50 ([2]; Severe acute respiratory syndrome coronavirus 2, Vero C1008): 60 µg/mL (≈ 64.8 µM)
